{"source": "paper PMC6743422", "about": "“Preclinical disposition of MGS0274 besylate, a prodrug of a potent group II metabotropic glutamate receptor agonist MGS0008 for the treatment of schizophrenia” (Pharmacology Research & Perspectives, 2019)", "key": {"[1]": {"set-up": "method as in PMID 17712352, PMID 11744608", "settings": "dogs; cited from earlier work"}, "[2]": {"settings": "humans, cited from earlier work; for oral bioavailability compared with parent compounds: transportable prodrugs"}, "[3]": {"set-up": "method as in PMID 25382826, PMID 17228865", "settings": "rats; cited from earlier work"}, "[4]": {"set-up": "method as in PMID 25382826", "settings": "monkeys; cited from earlier work"}, "[5]": {"tested_on": "schizophrenia", "set-up": "method as in PMID 24772351", "settings": "phase 3 clinical trial; cited from earlier work"}, "[6]": {"set-up": "method as in PMID 17767166", "settings": "humans; cited from earlier work"}, "[7]": {"tested_on": "positive and negative symptoms of schizophrenia", "set-up": "method as in PMID 17767166", "settings": "phase 2 proof-of-concept trial, compared with placebo; cited from earlier work"}, "[8]": {"assay": "Plasma protein binding in monkey plasma", "assay_type": "in vitro ADME, cynomolgus monkey", "settings": "pH 7.4, 0.1, 1, and 10 μg/mL as MGS0274, equilibrium dialysis 5 h, 37°C", "protocol": "(§1) [^14C]MGS0008 was spiked with rat, monkey, or human plasma at final concentrations of 0.1, 1, and 10 μg/mL. The protein binding was evaluated according to a previously published method.11 MGS0274 besylate was spiked with monkey or human plasma at final concentrations of 0.1, 1, and 10 μg/mL as MGS0274, which was placed in a donor compartment of a 96‐well equilibrium dialysis plate (Dialysis Membrane Strips MWCO 12‐14K; HT Dialysis, Gales Ferry, CT). Sodium phosphate buffer (0.05 M, pH7.4) containing sodium chloride (0.07 M) was placed in a reservoir compartment. After incubation for 5 hours at a rate of 100 rpm at 37°C in humidified air‐5% CO2, aliquots of the plasma and dialysate were collected from each compartment, mixed with acetonitrile/methanol (9:1, v/v) containing [^2H4]MGS0274 besylate, and centrifuged. Aliquots of the supernatant were subjected to bioanalysis using liquid chromatography‐tandem mass spectrometry (LC‐MS/MS) (see Table S1‐A). The protein binding (%) was calculated based on the instruction manual of the 96‐well plate."}, "[9]": {"assay": "Stability in buffers", "assay_type": "physicochemical", "settings": "pH 1.2 and 6.5 as surrogate for gastrointestinal fluids; data not shown"}, "[10]": {"assay": "Hydrolytic activity against MGS0274 in rat serum and tissue S9 fractions", "assay_type": "in vitro ADME", "settings": "rat serum", "protocol": "(§2) Rat, monkey, or human serum that had been pre‐incubated for 5 minutes at 37°C was spiked with MGS0274 besylate at 10 μmol/L. After incubation for 5 to 60 minutes, the reaction was terminated by adding acetonitrile/methanol/formic acid (90:10:1, v/v/v) containing [^13C2 ^15N]MGS0008, and the resultant mixture was centrifuged. Tissue S9 fractions with final protein concentrations of 0.25 mg/mL were pre‐incubated for 5 minutes at 37°C, then spiked with MGS0274 besylate at 10 μmol/L. After incubation for 1 to 5 minutes, the reaction was terminated by adding acetonitrile/methanol/formic acid (90:10:1, v/v/v) containing [^13C2 ^15N]MGS0008, and the resultant mixture was centrifuged. Aliquots of the supernatant were subjected to bioanalysis using LC‐MS/MS (see Table S1‐C). The formation rate of MGS0008 from MGS0274 in the reaction mixture was calculated using the following equation: Formation ratenmol/min/mg protein=concentration of MGS0008,nmol/mL/incubation time,min/protein concentration,mg protein/mL"}, "[11]": {"tested_on": "monkey cryopreserved hepatocytes", "assay": "In vitro metabolite profiling in monkey cryopreserved hepatocytes", "assay_type": "in vitro ADME", "settings": "monkey hepatocytes 0.5 million cells/mL, 37°C, 1 h, [14C]MGS0274 besylate 10 μmol/L", "protocol": "(§3) Rat, monkey, or human cryopreserved hepatocytes in Leivovitz L‐15 medium at 0.5 million cells/mL were incubated at 37°C for 1 hour with [^14C]MGS0274 besylate at 10 μmol/L. The reaction was terminated by adding 10% w/v trichloroacetic acid solution, and the resultant mixture was centrifuged. Aliquots of the supernatant were subjected to bioanalysis using high‐performance liquid chromatography equipped with radiochemical flow detection (RI‐HPLC) (see Table S1‐B). Aliquots of the supernatant from unlabeled incubation samples and authentic standards were also injected into a liquid chromatography‐mass spectrometry (LC‐MS) system under the same chromatographic conditions to compare their chromatographic retention times and mass spectral data (see Table S1‐B)."}, "[12]": {"assay": "Hydrolytic activity against MGS0274 in human serum and tissue S9 fractions", "assay_type": "in vitro ADME", "protocol": "as §2"}, "[13]": {"assay": "Hydrolytic activity against MGS0274 in monkey serum and tissue S9 fractions", "assay_type": "in vitro ADME", "settings": "monkey serum", "protocol": "as §2"}, "[14]": {"tested_on": "rat cryopreserved hepatocytes", "assay": "In vitro metabolite profiling in rat cryopreserved hepatocytes", "assay_type": "in vitro ADME", "settings": "rat hepatocytes 0.5 million cells/mL, 37°C, 1 h, [14C]MGS0274 besylate 10 μmol/L", "protocol": "as §3"}, "[15]": {"assay": "Plasma protein binding in human plasma", "assay_type": "in vitro ADME", "settings": "pH 7.4, 0.1, 1, and 10 μg/mL as MGS0274, equilibrium dialysis 5 h, 37°C", "protocol": "as §1"}, "[16]": {"tested_on": "human cryopreserved hepatocytes", "assay": "In vitro metabolite profiling in human cryopreserved hepatocytes", "assay_type": "in vitro ADME", "settings": "human hepatocytes 0.5 million cells/mL, 37°C, 1 h, [14C]MGS0274 besylate 10 μmol/L", "protocol": "as §3"}, "[17]": {"set-up": "method as in earlier work", "settings": "cited from earlier work"}, "[18]": {"tested_on": "CYP1A2 mRNA", "assay": "CYP induction in primary cultured cryopreserved human hepatocytes, CYP1A2 mRNA", "assay_type": "in vitro ADME", "settings": "positive control omeprazole 50 μM", "protocol": "(§4) The primary cultured cryopreserved human hepatocytes were plated in a collagen‐coated 96‐well plate (Becton Dickinson, Franklin Lakes, NJ) with Williams’ Medium E (Invitrogen, Carlsbad, CA) containing Geltrex^TM (Invitrogen) and Maintenance Supplements (Invitrogen) and maintained in humidified air‐5% CO2 at 37°C for 3 days. Then, the cells were cultured for three consecutive 24‐hour treatments with MGS0008 (3‐30 µmol/L), with MGS0274 besylate (3‐30 µmol/L), or with positive controls (omeprazole for CYP1A2 at 50 µmol/L, phenobarbital for CYP2B6 at 1000 µmol/L, or rifampicin for CYP3A4 at 10 µmol/L). The mRNA expression levels of CYP1A2, 2B6, and 3A4 were measured using the real‐time polymerase chain reaction (RT‐PCR) method (7500 Fast RT‐PCR system; Applied Biosystems, Foster City, CA) with TaqMan® Fast Universal PCR Master Mix (probe ID: Hs00167927_m1 for CYP1A2, Hs04183483_g1 for CYP2B6, and Hs00604506_ml for CYP3A4; Applied Biosystems). The fold change in the mRNA expression was calculated using the 2^‐ΔΔCT method.22"}, "[19]": {"tested_on": "CYP2B6 mRNA", "assay": "CYP induction in primary cultured cryopreserved human hepatocytes, CYP2B6 mRNA", "settings": "positive control phenobarbital 1000 μM", "protocol": "as §4"}}, "note": "Read-outs that look alike come from different tables or passages of the source."}
{"compound": "N[C@@]1(C(=O)O)CC[C@H]2[C@H](C(=O)O)[C@H]21", "note": "[LY354740, (+)‐2‐aminobicyclo[3.1.0]hexane‐2,6‐dicarboxylic acid]", "values": [{"measurement": "oral bioavailability", "setting": "[1]", "result": "high"}, {"measurement": "oral bioavailability", "setting": "[2]", "result": "low"}]}
{"compound": "N[C@@]1(C(=O)O)CS(=O)(=O)[C@H]2[C@H](C(=O)O)[C@H]21", "note": "[LY404039]", "values": [{"measurement": "oral bioavailability", "setting": "[3]", "result": "high"}, {"measurement": "oral bioavailability", "setting": "[2]", "result": "low"}]}
{"compound": "C[C@H](N)C(=O)N[C@@]1(C(=O)O)CC[C@H]2[C@H](C(=O)O)[C@H]21", "note": "[LY544344]", "values": [{"measurement": "oral bioavailability compared with parent compounds", "setting": "[2]", "result": "improved oral bioavailability"}]}
{"compound": "CSCC[C@H](N)C(=O)N[C@@]1(C(=O)O)CS(=O)(=O)[C@H]2[C@H](C(=O)O)[C@H]21", "note": "[LY2140023]", "values": [{"measurement": "systemic exposure to the prodrug, share of circulating radioactivity", "setting": "[4]", "result": "~15", "unit": "%"}, {"measurement": "efficacy in schizophrenia", "setting": "[5]", "result": "failed to demonstrate efficacy"}, {"measurement": "systemic exposure to the prodrug, relative to its parent compound", "setting": "[6]", "result": "roughly 30%"}, {"measurement": "effect on positive and negative symptoms of schizophrenia", "setting": "[7]", "result": "significantly improved"}, {"measurement": "oral bioavailability compared with parent compounds", "setting": "[2]", "result": "improved oral bioavailability"}]}
{"compound": "CC1CCC(C(C)C)C(OC(=O)OC(C)OC(=O)C2C3CC(F)C(N)(C(=O)O)C32)C1", "note": "(stereo not drawn) [MGS0274]", "values": [{"measurement": "fraction unbound at 5 h", "setting": "[8]", "result": "0.065 to 0.076"}, {"measurement": "stability in buffers", "setting": "[9]", "result": "confirmed"}, {"measurement": "stability in serum", "setting": "[10]", "result": "unstable"}, {"measurement": "metabolite profile of MGS0274", "setting": "[11]", "result": "nearly and completely hydrolyzed to MGS0008"}, {"measurement": "Formation rate of MGS0008", "setting": "[12]; human kidney S9 0.25 mg/mL, MGS0274 besylate 10 μmol/L, 37°C, MGS0008 not detected in the reaction mixture", "result": "no apparent hydrolytic activity"}, {"measurement": "stability in serum", "setting": "[12]; human serum", "result": "stable"}, {"measurement": "stability in serum", "setting": "[13]", "result": "stable"}, {"measurement": "metabolite profile of MGS0274", "setting": "[14]", "result": "nearly and completely hydrolyzed to MGS0008"}, {"measurement": "fraction unbound at 5 h", "setting": "[15]", "result": "0.039 to 0.043"}, {"measurement": "metabolite profile of MGS0274", "setting": "[16]", "result": "nearly and completely hydrolyzed to MGS0008"}]}
{"compound": "CC(C)[C@@H]1CC[C@@H](C)C[C@H]1O", "note": "[l‐menthol]", "values": [{"measurement": "acceptable daily intake", "setting": "[17]", "result": 4, "unit": "mg/kg"}]}
{"compound": "COc1ccc2[nH]c([S+]([O-])Cc3ncc(C)c(OC)c3C)nc2c1", "note": "(stereo not drawn) [omeprazole, reference compound]", "values": [{"measurement": "Fold change of mRNA expression level CYP1A2", "setting": "[18]; hepatocyte lot Hu1487", "result": 35.9, "unit": "fold"}, {"measurement": "Fold change of mRNA expression level CYP1A2", "setting": "[18]; hepatocyte lot Hu8114", "result": 20.7, "unit": "fold"}, {"measurement": "Fold change of mRNA expression level CYP1A2", "setting": "[18]; hepatocyte lot Hu8123", "result": 59.2, "unit": "fold"}]}
{"compound": "CCC1(c2ccccc2)C(=O)NC(=O)NC1=O", "note": "[phenobarbital, reference compound]", "values": [{"measurement": "Fold change of mRNA expression level CYP2B6", "setting": "[19]; hepatocyte lot Hu1487", "result": 16.4, "unit": "fold"}, {"measurement": "Fold change of mRNA expression level CYP2B6", "setting": "[19]; hepatocyte lot Hu8114", "result": 35.1, "unit": "fold"}, {"measurement": "Fold change of mRNA expression level CYP2B6", "setting": "[19]; hepatocyte lot Hu8123", "result": 45.7, "unit": "fold"}]}
